Data on 8 compounds can be found in patent publication US20150299125A1, “PRODRUG BIPYRIDYLAMINOPYRIDINES AS SYK INHIBITORS” (MERCK SHARP & DOHME CORP., priority 2012, published 2015).

Values after ≈ are worked out from the molar mass of the structure shown. Like-named read-outs stand apart in the source and are kept apart here.

The target of series [1] is T1, recombinant human GST-Syk (Homo sapiens, UniProt P43405).
T1 construct: purchased Carna Biosciences 08-176
Description: Homogeneous Time-Resolved Fluorescence (HTRF) assay for the recombinant human Syk enzyme. It is filed as biochemical. The settings on record: recombinant human GST-Syk 5 pM, ATP 25 μM, read-out: IC50. In a few lines:
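HTRF read-out, taken 30 min after adding 2 nM europium anti-pTyr antibody plus 70 nM streptavidin-APC in 40 mM EDTA/Tris pH 7.5, detects peptide phosphorylated by GST-tagged human Syk during a 45-min room-temperature reaction.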
For orientation: Time-resolved FRET reads energy transfer from a long-lived donor to a nearby acceptor.

Series [2] in a line: Solubility in biorelevant fasted state simulated intestinal fluid (FaSSIF). The class given is physicochemical. The note with it: 25 °C, fassif, kinetic from dmso stock. On the procedure:
Solubility in Biorelevant Fasted State Simulated Intestinal Fluid (FaSSIF):
A 10 mM DMSO stock solution of compound to be tested is used. A 100 μM standard solution is generated by diluting 2.5 μL of the 10 mM stock solution with 247.5 μL of diluent (10% DMSO/10% MeCN/80% MeOH, v/v/v). A solubility solution is generated by diluting 5 μL of the 10 mM stock solution with 245 μL of FaSSIF (maximum solubility approximately 200 μM). […] The equilibrated solubility solution is filtered by centrifugation (3 minutes at 4000 rpm) using a 0.45 µm filter with a polypropylene membrane. The standard solution and the filtered equilibrated solubility solution are analyzed by HPLC/DAD. The solubility value is calculated by the following equation:
Solubility=(Peak area of sample/Peak area of standard)(Standard concentration)

A word on the IC50: it is the concentration that gives 50% inhibition. A word on the solubility: it is the concentration that dissolves in the medium under given conditions.

`Cc1cc(Nc2cc(C(F)F)ccn2)nc(-c2ccc([C@](C)(O)[C@H]3CC[C@H](C(=O)OC4CC5CCC(C4)N5)CC3)nc2)c1` (stereo partly drawn) [Example 1-18, 8-azabicyclo[3.2.1]oct-3-yl trans-4-[(1R)-1-(6-{[4-(difluoromethyl)pyridin-2-yl]amino}-4-methyl-2,3′-bipyridin-6′-yl)-1-hydroxyethyl] cyclohexanecarboxylate]: in series [1], the IC50 stood at 2.7 nM. Moreover, the solubility in series [2] (FaSSIF (fasted state simulated intestinal fluid), FaSSIF, equilibrated overnight at 25° C., maximum solubility approximately 200 μM, read-out: Solubility) was 109 µM (≈ 64.5 µg/mL).

Turning to `Cc1cc(Nc2cc(C(F)F)ccn2)nc(-c2ccc([C@](C)(O)[C@H]3CC[C@H](C(=O)OC[N+]4(C)CCN(C)CC4)CC3)nc2)c1` [Example 5-26, 1-{[({trans-4-[(1R)-1-(6-{[4-(difluoromethyl)pyridin-2-yl]amino}-4-methyl-2,3′-bipyridin-6′-yl)-1-hydroxyethyl]cyclohexyl}carbonyl)oxy]methyl}-1,4-dimethylpiperazin-1-ium], the IC50 in series [1] was 2 nM. Further, the solubility in series [2] (Solubility) was 68 µM.

In the case of `CCN(CC)C(=O)N1CC[N+](C)(COC(=O)[C@H]2CC[C@H]([C@@](C)(O)c3ccc(-c4cc(C)cc(Nc5cc(C(F)F)ccn5)n4)cn3)CC2)CC1` [Example 5-12, 4-(diethylcarbamoyl)-1-{[({trans-4-[(1R)-1-(6-{[4-(difluoromethyl)pyridin-2-yl]amino}-4-methyl-2,3′-bipyridin-6′-yl)-1-hydroxyethyl]cyclohexyl}carbonyl)oxy]methyl}-1-methylpiperazin-1-ium], the IC50 in series [1] was under 0.5 nM. In series [2] (Solubility), this compound came in with a solubility of 55 µM.

On to `CC[N+](COC(=O)[C@H]1CC[C@H]([C@@](C)(O)c2ccc(-c3cc(C)cc(Nc4cc(C(F)F)ccn4)n3)cn2)CC1)(C(C)C)C(C)C` [Example 5-3, N-{[({trans-4-[(1R)-1-(6-{[4-(difluoromethyl)pyridin-2-yl]amino}-4-methyl-2,3′-bipyridin-6′-yl)-1-hydroxyethyl]cyclohexyl}carbonyl)oxy]methyl}-N-ethyl-N-(1-methylethyl)propan-2-aminium], for which the IC50 in series [1] was determined as 1.9 nM. Also, in series [2] (Solubility), the solubility is 175 µM.

With `CN[C@H]1CC[C@H](OC(=O)[C@H]2CC[C@H]([C@@](C)(O)c3ccc(-c4cc(C)cc(Nc5cc(C(F)F)ccn5)n4)cn3)CC2)CC1` [Example 1-24, trans-4-(methylamino)cyclohexyl trans-4-[(1R)-1-(6-{[4-(difluoromethyl)pyridin-2-yl]amino}-4-methyl-2,3′-bipyridin-6′-yl)-1-hydroxyethyl] cyclohexanecarboxylate], the IC50 in series [1] was 3.5 nM. Further, the concentration in solution in series [2] (Solubility) (solubility) was 141 µM (≈ 83.7 µg/mL).

For `CC[N+](CC)(CC)COC(=O)[C@H]1CC[C@H]([C@@](C)(O)c2ccc(-c3cc(C)cc(Nc4cc(C(F)F)ccn4)n3)cn2)CC1` [Example 5-10, N-{[({trans-4-[(1R)-1-(6-{[4-(difluoromethyl)pyridin-2-yl]amino}-4-methyl-2,3′-bipyridin-6′-yl)-1-hydroxyethyl]cyclohexyl}carbonyl)oxy]methyl}-N,N-diethylethanaminium], in series [1], the IC50 was 1.4 nM. Besides, the solubility in series [2] (Solubility) is 138 µM.

Consider `Cc1cc(Nc2cc(C(F)F)ccn2)nc(-c2ccc([C@](C)(O)[C@H]3CC[C@H](C(=O)OCCC[S+](C)[O-])CC3)nc2)c1` (stereo partly drawn) [Example 7-4, 3-(methylsulfinyl)propyl trans-4-[(1R)-1-(6-{[4-(difluoromethyl)pyridin-2-yl]amino}-4-methyl-2,3′-bipyridin-6′-yl)-1-hydroxyethyl]cyclohexane carboxylate], for which the half-inhibitory concentration (IC50) in series [1] is 4.3 nM. In series [2] (Solubility), this compound had a solubility of 141 µM (≈ 82.7 µg/mL).

As for `Cc1cc(Nc2cc(C(F)F)ccn2)nc(-c2ccc([C@](C)(O)[C@H]3CC[C@H](C(=O)OC[N+](C)(C)CCOC(=O)c4ccccc4)CC3)nc2)c1` [Example 5-25, N-{[({trans-4-[(1R)-1-(6-{[4-(difluoromethyl)pyridin-2-yl]amino}-4-methyl-2,3′-bipyridin-6′-yl)-1-hydroxyethyl]cyclohexyl}carbonyl)oxy]methyl}-N,N-dimethyl-2-[(phenylcarbonyl)oxy]ethanaminium], in series [1], the IC50 was determined as 0.7 nM. This compound displayed a solubility in series [2] (Solubility) of 155 µM.
